Counter-ions that a name gives are not always drawn.
Biological target: T1, SIRT2 (Homo sapiens, UniProt Q8IXJ6)
T1 construct: recombinant active enzymes SIRT1, SIRT2, and the catalytically active fragment of SIRT3
T1 sequence (Q8IXJ6 1-389): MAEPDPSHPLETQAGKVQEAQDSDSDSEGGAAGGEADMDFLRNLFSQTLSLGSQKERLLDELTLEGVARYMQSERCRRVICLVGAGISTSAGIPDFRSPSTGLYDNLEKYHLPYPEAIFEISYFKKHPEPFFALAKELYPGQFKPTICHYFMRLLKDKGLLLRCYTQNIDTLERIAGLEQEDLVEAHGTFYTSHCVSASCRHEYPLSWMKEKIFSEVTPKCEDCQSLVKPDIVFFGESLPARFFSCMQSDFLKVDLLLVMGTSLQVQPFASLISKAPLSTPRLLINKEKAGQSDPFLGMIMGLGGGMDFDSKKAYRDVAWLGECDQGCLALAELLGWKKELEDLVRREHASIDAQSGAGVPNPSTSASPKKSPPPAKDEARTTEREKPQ
Experiment: Fluor-de-Lys biochemical sirtuin deacetylation assay, SIRT2
Conditions: 10 μM

| inhibition at 10 µM | SMILES |
| --- | --- |
| 15% | CN(c1ccc(Cl)cc1)S(=O)(=O)c1cccc(C(=O)Nc2ccc(CN)cc2)c1 [Compound 203Aa, N-(4-(aminomethyl)phenyl)-3-(N-(4-chlorophenyl)-N-methylsulfamoyl)benzamide] |
| 0% | CN(c1ccc([S+](C)[O-])cc1)S(=O)(=O)c1cccc(C(=O)Nc2ccc(Cl)cc2F)c1 (stereo not drawn) [Compound 203Ad, N-(4-chloro-2-fluorophenyl)-3-(N-methyl-N-(4-(methylsulfinyl)phenyl)sulfamoyl)-benzamide] |
| 0% | CN(C(=O)c1ccnc(S(=O)(=O)N(C)c2ccc(Cl)cc2)c1)c1ccc(S(C)(=O)=O)cc1 [Compound 203Ao, 2-(N-(4-chlorophenyl)-N-methylsulfamoyl)-N-methyl-N-(4-(methylsulfonyl)phenyl)-isonicotinamide] |
| 38% | C[C@@H](N)c1ccc(N(C)S(=O)(=O)c2cccc(C(=O)Nc3ccc(C#N)cc3)c2)cc1 [Compound 203At, (R)-3-(N-(4-(1-aminoethyl)phenyl)-N-methylsulfamoyl)-N-(4-cyanophenyl)-benzamide hydrochloride] |
| 39% | C[C@H](N)c1ccc(N(C)S(=O)(=O)c2cccc(C(=O)Nc3ccc(C#N)cc3)c2)cc1 [Compound 203Au, (S)-3-(N-(4-(1-aminoethyl)phenyl)-N-methylsulfamoyl)-N-(4-cyanophenyl) benzamide hydrochloride] |
| 51% | CN(c1ccc(O)cc1)S(=O)(=O)c1cccc(C(=O)Nc2ccc(C#N)cc2)c1 [Compound 203Ax, N-(4-cyanophenyl)-3-(N-(4-hydroxyphenyl)-N-methylsulfamoyl)benzamide] |
| 0% | Cc1cc(Br)ccc1NC(=O)c1cccc(S(=O)(=O)N(C)c2ccc(Br)cc2)c1 [Compound 203e, N-(4-bromo-2-methylphenyl)-3-(N-(4-bromophenyl)-N-methylsulfamoyl)benzamide] |
| 43% | Nc1cccc(NC(=O)c2cccc(S(=O)(=O)N3CCCCCC3)c2)c1 [Compound 203i, N-(3-aminophenyl)-3-(azepan-1-ylsulfonyl)benzamide] |

Same assay, conditions: 10 μM; AK-1 derivatives

| % of SIRT2 Inhibition at 10 μM | SMILES |
| --- | --- |
| 4% | C[S+]([O-])c1cccc(NC(=O)c2cccc(S(=O)(=O)N3CCCCCC3)c2)c1 (stereo not drawn) [Compound 138, 3-(azepan-1-ylsulfonyl)-N-(3-(methylsulfinyl)phenyl)benzamide] |
| 1% | C[S+]([O-])c1cccc(NC(=O)c2cccc(S(=O)(=O)N3CCCCCC3)c2)c1 (stereo not drawn) [Compound 141, 3-(azepan-1-ylsulfonyl)-N-(3-(methylsulfinyl)phenyl)benzamide] |

Same assay, conditions: 10 μM; C2-8 derivatives

| % of SIRT2 Inhibition at 10 μM | inhibition at 10 µM | SMILES |
| --- | --- | --- |
| 0% |  | CN(c1ccc(Cl)cc1)S(=O)(=O)c1cccc(C(=O)NCc2ccccn2)c1 [Compound 53, 3-(N-(4-chlorophenyl)-N-methylsulfamoyl)-N-(pyridin-2-ylmethyl)benzamide] |
| 3% |  | CN(c1ccc(Cl)cc1)S(=O)(=O)c1cccc(C(=O)NCc2ccccn2)c1 [Compound 62, 3-(N-(4-chlorophenyl)-N-methylsulfamoyl)-N-(pyridin-2-ylmethyl)benzamide] |
|  | 16% | CN(c1ccc(Br)cc1)S(=O)(=O)c1cccc(C(=O)Nc2ccc(Cl)nn2)c1 [Compound 85, 3-(N-(4-bromophenyl)-N-methylsulfamoyl)-N-(6-chloropyridazin-3-yl)benzamide] |

Same assay, conditions: 10 μM; sulfone, sulfoxide, thioether derivatives of C2-8 scaffold

| inhibition at 10 µM | % of SIRT2 Inhibition at 10 μM | SMILES |
| --- | --- | --- |
| 0% |  | O=C(Nc1ccc(Cl)cc1)c1cccc(S(=O)(=O)Cc2ccc(Cl)cc2)c1 [Compound 171, 3-((4-chlorobenzyl)sulfonyl)-N-(4-chlorophenyl)benzamide] |
| 0% |  | O=C(Nc1ccc(Br)cc1)c1cccc(S(=O)(=O)Cc2ccc(Cl)cc2)c1 [Compound 172, N-(4-bromophenyl)-3-((4-chlorobenzyl)sulfonyl)benzamide] |
| 2% |  | O=C(Nc1ccc(Cl)cn1)c1cccc(S(=O)(=O)Cc2ccc(Cl)cc2)c1 [Compound 173, 3-((4-chlorobenzyl)sulfonyl)-N-(5-chloropyridin-2-yl)benzamide] |
| 31% |  | C[S+]([O-])c1ccc(NC(=O)c2cccc(S(=O)(=O)Cc3ccc(Cl)cc3)c2)cc1 (stereo not drawn) [Compound 175, 3-((4-chlorobenzyl)sulfonyl)-N-(4-(methylsulfinyl)phenyl)benzamide] |
| 36% |  | N#Cc1ccc(NC(=O)c2cccc(S(=O)(=O)Cc3ccc(Cl)cc3)c2)nc1 [Compound 176, 3-((4-chlorobenzyl)sulfonyl)-N-(5-cyanopyridin-2-yl)benzamide] |
| 17% |  | CS(=O)(=O)c1ccc(NC(=O)c2cccc(S(=O)(=O)Cc3ccc(Cl)cc3)c2)cc1 [Compound 177, 3-((4-chlorobenzyl)sulfonyl)-N-(4-(methylsulfonyl)phenyl)benzamide] |
| 23% |  | CC(=O)c1ccc(NC(=O)c2cccc(S(=O)(=O)Cc3ccc(Cl)cc3)c2)cc1 [Compound 178, N-(4-acetylphenyl)-3-((4-chlorobenzyl)sulfonyl)benzamide] |
| 0% |  | O=C(Nc1ccc(Cl)nn1)c1cccc(S(=O)(=O)Cc2ccc(Cl)cc2)c1 [Compound 179, 3-((4-chlorobenzyl)sulfonyl)-N-(6-chloropyridazin-3-yl)benzamide] |
| 50% |  | COc1ccc(CS(=O)(=O)c2cccc(C(=O)Nc3ccc(C#N)cc3)c2)cc1 [Compound 180, N-(4-cyanophenyl)-3-((4-methoxybenzyl)sulfonyl)benzamide] |
| 81% |  | N#Cc1ccc(NC(=O)c2cccc(SCc3ccc(Cl)cc3)c2)cc1 [Compound 181, 3-((4-chlorobenzyl)thio)-N-(4-cyanophenyl)benzamide] |
| 83% |  | CSc1ccc(CSc2cccc(C(=O)Nc3ccc(C#N)cc3)c2)cc1 [Compound 183, N-(4-cyanophenyl)-3-((4-(methylthio)benzyl)thio)benzamide] |
| 47% |  | N#Cc1ccc(NC(=O)c2cccc([S+]([O-])Cc3ccc(Cl)cc3)c2)cc1 (stereo not drawn) [Compound 186, N-(4-cyanophenyl)-3-((4-chlorobenzyl)sulfinyl)benzamide] |
| 24% |  | C[S+]([O-])c1ccc(NC(=O)c2cccc([S+]([O-])Cc3ccc(Cl)cc3)c2)cc1 (stereo not drawn) [Compound 187, 3-((4-chlorobenzyl)sulfinyl)-N-(4-(methylsulfinyl)phenyl)benzamide] |
|  | 18% | C[S+]([O-])c1ccc(NC(=O)c2cccc(S(=O)(=O)Cc3ccc(Cl)cc3)c2)cc1 (stereo not drawn) [Compound 188, 3-((4-chlorobenzyl)sulfonyl)-N-(4-(methylsulfinyl)phenyl)benzamide] |
| 21% |  | COc1ccc(C[S+]([O-])c2cccc(C(=O)Nc3ccc(C#N)cc3)c2)cc1 (stereo not drawn) [Compound 189, N-(4-cyanophenyl)-3-((4-methoxybenzyl)sulfinyl)benzamide] |

Same assay, conditions: dose-response, five doses, side-by-side with AK-1

| SIRT2 inhibition potency compared with AK-1 | SMILES |
| --- | --- |
| equal or just slightly better potency | CC(=O)c1ccc(NC(=O)c2cccc(S(=O)(=O)N(C)c3ccc(C(C)=O)cc3)c2)cc1 [Compound 109, N-(4-Acetylphenyl)-3-(N-(4-acetylphenyl)-N-methylsulfamoyl)benzamide] |
| equal or just slightly better potency | CN(c1ccc(S(C)(=O)=O)cc1)S(=O)(=O)c1cccc(C(=O)Nc2ccc(Cl)cc2)c1 [Compound 117, N-(4-Chlorophenyl)-3-(N-methyl-N-(4-(methylsulfonyl)phenyl)sulfamoyl)benzamide] |

— patent publication US9890117B2, “Benzamide compounds and related methods of use” (Northwestern University, priority 2012, dated 2018)
